According to patent publication US9757405B2, “Compositions comprising rutin useful for the treatment of tumors resistant to chemotherapy” (PROBIOTICAL S.P.A., priority 2013, dated 2017):

Key:
[1] = test system: MDA-MB-231 (breast adenocarcinoma) cells; assay: Cell viability of chemoresistant MDA-MB-231 cells; assay type: cell-based, human; conditions: alone or in association with cyclophosphamide
Text: (§1) The activity of the association of rutin with synthetic chemotherapeutics (cyclophosphamide) and of the association of rutin with arctigenin, arctiin, berberine, berbamine, sanguinarine, chelerythrine (referred to with the term “extracts” in the tables), was studied on resistant cell lines of adenocarcinomas and carcinomas compared with chemosensitive tumor cell lines and with line cells.
(§2) In particular, chemoresistant human tumor cells MDA-MB-231 (breast adenocarcinoma), ECV-304 (bladder carcinoma), HuH-7 (hepatocellular carcinoma) and HTB-43 (squamous cell carcinoma of the pharynx), chemosensitive tumor cells MCF-7 (breast adenocarcinoma) and non-tumor healthy human mammal fibroblasts (HMF) have been used.

[2] = Cell viability of non-tumor healthy fibroblasts HMF; conditions: human
Text: as §1, §2

In the case of O=c1c(O)c(-c2ccc(O)c(O)c2)oc2cc(O)cc(O)c12 [Quercetin, quercetin], the “Synergic effect in association with cyclophosphamide” value [1] is reported as “absence of synergic effects”.
O=P1(N(CCCl)CCCl)NCCCO1 (stereo not shown) [Cyclophosphamide, cyclophosphamide] gave a viability at 850 ng/ml [2] of 54%, a viability at 1000 ng/ml [2] of 48% and a viability at 1300 ng/ml [2] of 42%.
